In patent US11297839B2, “Stable compositions of uncomplexed iodine and methods of use” (ioTech International, Inc., priority 2014, dated 2022):

Experiment: Compatibility of surface active agents with molecular iodine base composition
Assay type: physicochemical
Details: 985 micromolar molecular iodine base with n-propanol, peracetic acid, hydrogen peroxide, iodate, citric acid; 37 degrees centigrade 6 weeks
Method: A further objective of this invention was to incorporate surface active agents in the compositions contemplated in this application to enhance the cleaning and wetting properties of said compositions. A series of surface active agents were screened to insure their compatibility with the molecular iodine based composition contemplated in this application. A 985 micromolar concentration of molecular iodine was prepared by dissolving elemental iodine crystals in a sealed glass volumetric flask containing the base composition. […] Samples of the following surface active agents or classes of surface active agents were obtained from various manufacturers and evaluated for compatibility with molecular iodine.
For `CCCCCCCCCCCC(=O)OCC(O)CO` (stereo not shown) [dodecanoic acid 2,3-dihydroxypropyl ester], the “compatibility of surface active agent with molecular iodine composition” value (shortened to “compatibility of surface active agent”) was “compatible at all concentrations tested”. In the case of `CCCCCCCCC(=O)OCC(O)CO` (stereo not shown) [nonanoic acid 2,3-dihydroxypropyl ester], the “compatibility of surface active agent” value is reported as “compatible at all concentrations tested”. For “nonylphenoxypolyethyleneoxy ethanol sulfate”, the “compatibility of surface active agent” value was “compatible at all concentrations tested”. With `CCCCCCCC(=O)O` [capryllic acid] the “compatibility of surface active agent” value was “compatible at all concentrations tested”.

Experiment: Compatibility of biocides with 300 ppm molecular iodine base composition
Details: biocide added at increasing concentrations to 300 ppm molecular iodine base, iodate excess 2; 6 weeks
In the case of `CCCO` [Formulation 1-propanol, 1-propanol], the “compatibility with molecular iodine (colour, thiosulfate titratable iodine)” value (“compatibility with molecular iodine” below) is reported as “did not reduce thiosulfate titratable iodine”. For `CCO` [ethanol], the “compatibility with molecular iodine” value was “did not reduce thiosulfate titratable iodine”. For `OO` [hydrogen peroxide], the “compatibility with molecular iodine” value was “did not reduce thiosulfate titratable iodine”. With `CC(C)O` [Formulation 2-propanol, 2-propanol] the “compatibility with molecular iodine” value was “did not reduce thiosulfate titratable iodine”. With `CC(=O)OO` [peracetic acid] the “compatibility with molecular iodine” value was “did not reduce thiosulfate titratable iodine”. With `CCCCCCCC(=O)O` [octanoic acid] the “compatibility with molecular iodine” value was “did not reduce thiosulfate titratable iodine”.
